The values below come from patent US8710067B2, “Method for the treatment, alleviation of symptoms of, relieving, improving and preventing a cognitive disease, disorder or condition” (Alcobra Ltd., priority 2009, dated 2014).

Series [1] is described as follows: Pharmacokinetics after single administration to fasted healthy subjects (Example 1). It counts as in vivo, human. The source says: The above mentioned formulations were given to fasted healthy patients. Blood samples were collected following a predetermined time schedule in order to characterize formulation adsorption and elimination.
For series [2], the system named is ADHD/ADD adult patients. As to the kind of experiment: TOVA (Test of Variables of Attention) in ADHD/ADD adult patients (Example 2). It counts as in vivo, human. To be noted: n = 12; Bonferroni adjustment; NS, p 0.258. The protocol:
(§1) 38 ADHD/ADD adult patients (age 18-45) of ADHD unit of the Geha Mental Health Center (Israel) were tested.
(§2) A total of four tablets were administered to each patient: • Two tablets of immediate release (IR) formulation (defined in Table 4) and • Two tablets of slow release (SR) formulation (defined in Table 5).
(§3) Tests at inclusion included selection of patients, and included clinical diagnosis by DSM IV, psychiatric examination, WURS & ASRS questionnaires, TOVA (Test of Variables of Attention) score, Wechsler (Wechsler Adult Intelligence Scale) subtests, BDI (Beck Depression Inventory) and STAI (State-Trait Anxiety Inventory) questionnaire.
The TOVA is a computerized test developed to assess attention and impulsivity in normal and clinical populations. Main outcome measures for the TOVA are the Omission Standard Score (SS; inattention measure) the Commission Standard Score (SS; measure of impulse control), the Response Time (RT) SS, the Variability in RT SS, and overall ADHD SS (a composite score of the previous submeasures).
(§4) The Primary outcome measure was the ADHD Score, TOVA Omission, TOVA Commission, TOVA RT and TOVA Variability analysed as Standard Score in % compared to the patient's prior performance of the TOVA test at baseline. Secondary outcome measures were Subtests from Weschler: Digit span, Symbol Search, Digit symbol.

The test system of series [3] is ADHD/ADD adult patients. As to the kind of experiment: Wechsler subtests in ADHD/ADD adult patients (Example 2). It counts as in vivo, human. The conditions noted are these: single dose 1400 mg, 90 minutes after dosing. The protocol:
as §1, §2, §3, §4

The conditions of series [4]: cited from earlier work.
Series [5] has as its system animals with alcohol intake. To be noted: animal studies, cited from earlier work.
Series [6] relates to frontoparietal cortex of guinea pigs. To be noted: cited from earlier work.
Series [7] deals with abstinent chronic alcoholic. To be noted: abstinent chronic alcoholics, after 1-2 months of abstinence; control group given vitamin B6; cited from earlier work.
Series [8] concerns humans. The conditions noted are these: long term data; cited from earlier work.

For `Cc1ncc(CO)c(CO)c1O.O=C1CC[C@@H](C(=O)O)N1` [Metadoxine, pyridoxine L-2-pyrrolidone-5-carboxylate], in series [1] (FIG. 1, immediate/slow release formulations, fasted healthy subjects), the “time to maximal concentration” value is “about 0.5 hour”. In series [1] (single administration, dose range 700 to 2100 mg, healthy Caucasian subjects), the “dose-linearity for Cmax and AUC” value was “dose-linearity was demonstrated”. Besides, the “ADHD Score, Mean Difference, comparison with (3) Metadoxine 1400 mg, other group not given” value in series [2] is reported as “+3.687 NS”. Moreover, the “cognitive functions in the ADHD adult population (Wechsler subtests overall)” value in series [3] is on record as “confirmed the ability of Metadoxine to improve cognitive functions”. In series [4] (Lu Yuan et al.), the “mean half life in human serum” value is reported as “about 0.8 hour”. The “half life in human serum” value in series [4] (oral and intravenous administration, no appreciable differences) is 40 to 60 min. For the same compound, in series [4] (oral), the bioavailability is 60-80%. Further, in series [5] (during chronic alcohol intake), the “increased production of fatty acid esters in the liver” value was “inhibited”. Further, the “oxidative stress and glutathione depletion in hepatic tissues” value in series [5] is “reduced oxidative stress and prevented glutathione depletion”. In series [6], the “level of GABA and acetylcholine” value is recorded as “increased”. In series [7], the “recovery of short-term memory” value was “helps recovery of short-term memory”. Besides, the “safety for use by humans” value in series [8] was “safe for use by humans”.
